This test relates to Erysiphe graminis f.sp. hordei. Put plainly: Leaf-disc-test, efficacy against Erysiphe graminis f.sp. hordei on barley (Example B-2 c). The class given is in vivo. The following applies: single active ingredient, curative application 2 days after inoculation, barley leaf segments, infection in control: 68%. The source says: A synergistic effect exists whenever the action of an active ingredient combination is greater than the sum of the actions of the individual components. The action to be expected E for a given active ingredient combination obeys the so-called COLBY formula and can be calculated as follows (COLBY, S. R. “Calculating synergistic and antagonistic responses of herbicide combination”. Weeds, Vol. 15, pages 20-22; 1967): According to Colby, the expected (additive) action of active ingredients I+II using p+q ppm of active ingredient is [formula] If the action actually observed (O) is greater than the expected action (E), then the action of the combination is superadditive, i.e. there is a synergistic effect. Efficacy Against Erysiphe graminis f.sp. hordei on Barley c) Leaf-disc-test Barley plants, cv. “Hasso” were cultivated under greenhouse conditions at 20° C. in TKS-1 standard soil for 10 days. Leaf segments with a length of 10 mm were cut out of the primary leaves and were placed with the upper side up in multiple well plates (24 wells per plate). Each well contains 2 ml of 0.2% water agar+35 ppm benzimidazole. The fungicide treatment was carried out 2 days after inoculation (curative-application) by a total volume of 400 μl that were sprayed with an “air brush” on 4 leaf segments meaning 4 replicates. The inoculated leaf segments were incubated for 1 week in an incubation chamber by 18° C., the first two days in the dark, and the five next days by 12 hours light. After the incubation period, the % leaf attack was estimated with the help of a binocular and the % activity was calculated relative to the check.

As for `CC1COC(Cn2cncn2)(c2ccc(Oc3ccc(Cl)cc3)cc2Cl)O1` (stereo not drawn) [difenoconazole], the “% activity observed” value (conc. 0.01 %) is 0% and the “% activity observed” value (conc. 0.025 %) is listed as 41%.

For `CC(C1CC1)C(O)(Cn1cncn1)c1ccc(Cl)cc1` (stereo not drawn) [cyproconazole], the “% activity observed” value (conc. 0.0025 %) is on record as 36%.

The values above are taken from patent US20020035038A1, “Fungicidal combinations comprising thieno[2,3-d]pyrimidin-4-one” (priority 1998, published 2002).
